Counter-ions that a name gives are not always drawn.
Key:
gastric acid secretion = assay: Inhibitory Effect on Gastric Acid Secretion in Ghosh-Schild Rats; assay type: in vivo, rat (male Wistar-KV); details: 180 minutes after administration
Experimental: (a) Inhibitory Effect on Gastric Acid Secretion in Ghosh-Schild Rats Each of male Wistar-KV rats was fasted for 24 hours, and a trachea cannula was set up under urethane anesthesia. The abdomen was incised, a double cannula was set up at the forestomach, and then the abdomen was closed. The gastric acid secretion was stimulated by intravenous infusion of […]. Physiological saline was perfused into the stomach through the double cannula at a rate of 1 ml/min., and the effluent was collected every 10 minutes. The acidity of the effluent was measured, using an automatic titrator, by titrating the effluent with 1/100N sodium hydroxide to pH 7. When the acid secretion had reached a stable plateau, the test drug was intravenously administered, and the gastric acid secretion was measured 3 hours after the test drug administration. The antisecretory effect was expressed as percentages of the secretory amount before administration of the test compound. Inhibition percentages at 180 minutes after the administrations are shown.

[1] = system: gastric lesion induced by ethanol; assay: Inhibitory Effect on Formation of Gastric Lesion Induced by Ethanol; assay type: in vivo, rat (male Wistar); details: P.O., 30 minutes before 1 ml of 99.5% ethanol orally, lesions 1 hour after ethanol
Experimental: (b) Inhibitory Effect on Formation of Gastric Lesion Induced by Ethanol
Male Wistar rats weighing 170 to 270 g were used. Each of the rats was placed in separate cages to deprive of food but allowed free access to water for 4 hours. Test drugs or the control drug were orally administered respectively in amounts of 3, 10 and 30 mg/kg, and 30 minutes thereafter 1 ml of 99.5% ethanol were orally administered respectively. One hour after the ethanol administration the rats were sacrificed by cervical vertebrae dislocation, and the stomachs were removed with 8 ml of 1% formalin and put into 1% formalin for 30 minutes to fix the gastric wall. After the fixing, each stomach was opened along the greater curvature, and then after the mucosal surface was washed with tap water, the total length lesions generated at the glandub portion was determined as an ulcer index.
The antiulcer effect by the test drug was expressed by the ED50 value (the dose of the test compound to inhibit the ulcer by 50% to the ulcer index of the non-treated group). Only the solvent was administered to the non-treated group.

Compound | Inhibiting action of gastric acid secretion (rat i.v.), 3 mg/kg (gastric acid secretion) [%] | Inhibiting action of gastric acid secretion (rat i.v.), 1 mg/kg (gastric acid secretion) [%] | ED50 ([1]; Rattus norvegicus, po, read-out: ED50 value (dose of the test compound to inhibit the ulcer by 50% to the ulcer index of the non-treated group)) [mg/kg] | ED50 value (dose of the test compound to inhibit the ulcer by 50% to the ulcer index of the non-treated group) ([1]; rat, sodium salt) [mg/kg] | Inhibiting action of gastric acid secretion (rat i.v.), 1 mg/kg (gastric acid secretion; sodium salt) [%]
COc1c(C)cnc2c1CCCCC2[S+]([O-])c1nc2ccccc2[nH]1 (centres unmarked) [Example 109, 9-(Benzimidazole-2-yl)sulfinyl-4-methoxy-3-methyl-2,3-cycloheptenopyridine] | 77.6 | – | – | – | –
COc1ccc2[nH]c([S+]([O-])C3CCCCc4c(OC)ccnc43)nc2c1 (centres unmarked) [Example 63, 9-(5-Methoxybenzimidazole-2-yl)sulfinyl-4-methoxy-2,3-cycloheptenopyridine] | 73.8 | 45.7 | – | – | –
COc1ccnc2c1CCCCC2[S+]([O-])c1nc2ccccc2[nH]1 (centres unmarked) [Example 77, 9-(Benzimidazole-2-yl)sulfinyl-4-methoxy-2,3-cycloheptenopyridine] | 74.7 | 44.7 | 13 | – | –
Cc1ccc2[nH]c([S+]([O-])C3CCCCc4cccnc43)nc2c1 (centres unmarked) [Example 75, 9-(5-Methylbenzimidazole-2-yl)sulfinyl-2,3-cycloheptenopyridine] | 42.1 | – | – | – | –
COc1ccc2[nH]c([S+]([O-])Cc3ncc(C)c(OC)c3C)nc2c1 (centres unmarked) [Omeprazole, reference compound] | – | 36.9 | – | – | –
COCCOc1ccnc2c1CCCCC2[S+]([O-])c1nc2ccccc2[nH]1 (centres unmarked) [Example 96, 9-(Benzimidazole-2-yl)sulfinyl-4-(2-methoxyethoxy)-2,3-cycloheptenopyridine] | 57.4 | 38.6 | – | – | –
COc1ccnc2c1CCCCC2[S+]([O-])c1nc2ccccc2[nH]1 (centres unmarked) [Example 68, 9-(Benzimidazole-2-yl)sulfinyl-4-methoxy-2,3-cycloheptenopyridine sodium salt] | – | – | – | 10.9 | 54.9
COc1ccnc2c1CCCCC2[S+]([O-])c1nc2cc(F)ccc2[nH]1 (centres unmarked) [Example 78, 9-(5-Fluorobenzimidazole-2-yl)sulfinyl-4-methoxy-2,3-cycloheptenopyridine] | 82.9 | 65.4 | – | – | –
